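These data come from cells grown in 96-well plates and exposed to compound for 48 hours at five concentrations. GI50: concentration for 50% inhibition of growth. TGI marks complete inhibition of growth.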
Assays:
Assay in all cases: NCI-60 cell line screen, 48 h
[1] = tested on: UACC-62 melanoma
[2] = tested on: HOP-62 NSCLC
[3] = tested on: LOX IMVI melanoma
[4] = tested on: MOLT-4 leukemia
[5] = tested on: PC-3 prostate
[6] = tested on: HT29 colon
[7] = tested on: A498 renal
[8] = tested on: NCI-H23 lung
[9] = tested on: ACHN renal

SMILES	TGI [1] [µM]	TGI [2] [µM]	TGI [3] [µM]	TGI [4] [µM]	TGI [5] [µM]	TGI [6] [µM]	TGI [7] [µM]	TGI [8] [µM]	TGI [9] [µM]	GI50 [1] [µM]	GI50 [2] [µM]	GI50 [4] [µM]	GI50 [5] [µM]	GI50 [6] [µM]	GI50 [7] [µM]	GI50 [8] [µM]	GI50 [3] [µM]	GI50 [9] [µM]
O=c1[nH]c2cc3cccnc3c(Cl)c2nc1C(F)(F)F	> 100	> 100	> 100	83.2	> 100	> 100	> 100	> 100	> 100									
CC1(C)[C@@H](Cn2cnc3c(=O)[nH]c(N)nc32)CC[C@@]1(C)CO	> 100	> 100	> 100	> 100	> 100		> 100		> 100									
CCOC(=O)C1=C(C)C(C(=O)OC)/C(=C/c2cccc3cccnc23)C1=O (configuration not stated)	> 10	> 10	> 10	> 10	> 10	> 10	> 10	> 10	> 10									
CCOC(=O)c1c2c(n3ccc(NC(=O)OC(C)(C)C)cc13)C(=O)c1ncccc1C2=O	0.639	0.7		7.52	2.05	2.22	4.44	0.669		0.138	0.143	0.78	0.25	0.638	0.0339	0.147		
NCCNCCCCCCNC(=O)c1cccc2cc3ccccc3nc12	4.64	4.68	2.96	4.47	8.79	3.77	9.49	6.81	5.98									
CCOP(=O)(OCC)/C(=C\N1C(=O)CC(=O)NC1=S)C(=O)OC	> 100	> 100	> 100	> 100		> 100	> 100	> 100	> 100									
CCOC(=O)CCc1c(C(=O)OCC)[nH]c(/C=C2\NC(=O)C(C)=C2CC)c1C	44.9	27.6	> 100	> 100	63.3	> 100			41.2									
COC(=O)c1ccc(CCc2cc(O)ccc2O)cc1	33.9	48.6	22.7	15.3	17.5	> 79.9	> 96.7	> 54.9	37.9									
Cc1ccc(-n2c(O)c3c(N)n[nH]c3c(C#N)c2=O)cc1	> 100		> 100	> 100	> 100	> 100	> 100	> 100										
c1cc(C[S+]2CCCC2)ccc1C[S+]1CCCC1	> 100	> 100	> 100	> 100	> 100	> 100	> 100	> 100	> 100									
C=C(CC(=O)Nc1ccc(C(=O)OC)o1)C(=O)OC	72.4	> 100	> 100	47.8	58.9	70.2	> 100	72.7	34.6									
CC(C)[C@H]1NC(=O)[C@H]2N=C(O[C@@H]2C)[C@@H]2CCCN2C(=O)[C@H](Cc2ccccc2)NC(=O)[C@@H]2CSC(=N2)[C@@H](Cc2ccccc2)NC(=O)[C@@H]2CSC1=N2	> 100	> 100	> 100	> 100	> 100	> 100	> 100	> 100	> 100									
C1#Cc2ccccc2OCCOc2ccccc2C#Cc2ccccc2OCCOc2ccccc21	> 100	23.2	33.4	31.3	> 100	> 100	37.8	34.8	37.9									
O=c1[nH]c2ccccc2nc1/C=C(\O)C(F)F	> 100	> 100	> 100	> 100	> 100	> 100	> 100	> 100	> 100									
N/N=C1/C(=N/O)CCc2nonc21	> 100	> 100	> 100	> 100	> 100	> 100		> 100	> 100									
N#Cc1c(N2CCCC2)ncn(Cc2ccccc2)c1=S	> 100	> 100	> 100	> 100	> 100	> 100	> 100	> 100	> 100									
CC(=NCCN(CCN=C(C)c1c(O)cc(C)oc1=O)CCN=C(C)c1c(O)cc(C)oc1=O)c1c(O)cc(C)oc1=O		> 100		> 100	> 100	> 100			> 100									
O=C1OC2(C(F)(F)F)Oc3ccccc3CN2C12CCCCC2 (configuration not stated)	> 100	91.9	52.7	54.3	88	> 100	> 100	95.2	38.1									
OCC(O)C1OC2CC1Nc1ccccc1N2 (configuration not stated)	> 100	> 100	> 100	> 100	> 100	> 100	> 100	> 100	> 100									
S=C1C(=Nc2ccccc2)N(c2ccccc2)/C(=N\c2ccccn2)N1c1ccccc1	17.1	30.1	21.9	> 100	25.4	24.8	30.4	25	15.9									
Cc1cc(N=Cc2c(CO)cnc(C)c2O)c(N=Cc2c(CO)cnc(C)c2O)cc1C.[Zn]	> 100	> 100	> 100	> 100	> 100	> 100	> 100		> 100									
Nc1ccccc1NC(=O)CCCCCCC(=O)Nc1ccc2c(c1)/C(=C/c1ccc[nH]1)C(=O)N2	> 100		> 100	> 100	> 100	> 100	> 100	> 100	> 100	> 100		2.9	6.92	> 100	3.17	> 100	> 100	15.1
